Values after ≈ are worked out from the molar mass of the structure shown. Where two headings read alike, the source gives them in different places.
Columns and labels:
[1] = tested on: viral protein glycosylation; settings: cited from earlier work
influenza infected cells = settings: cited from earlier work
HIV-infected cells = settings: Blough et al. 1986; cited from earlier work
HIV = settings: Blough et al. 1986; cited from earlier work
HIV glycoproteins = settings: Blough et al. 1986; cited from earlier work
[2] = tested on: Moloney murine leukemia virus (MoLV); assay: in vitro XC plaque assay (inhibition of growth and replication of murine leukemia virus); assay type: cell-based; settings: SC1, MoLV on mouse SC-1 cells, rat XC cells, compound added 2 hours prior to virus, read-out: IC50 (inhibitory concentration)
Protocol: This assay was performed according to the method of Rowe et al. (Virology, 1970, 42, 1136-39) as previously described by L. Hsu, et al. (J. Viroloqical Methods, 1980, 1, 167-77) and T. L. Bowlin and M. R. Proffitt (J. Interferon Res., 1983, 3(1), 19-31). Mouse SC-1 cells (fibroblast) (10^5) were seeded into each well of 6-well cluster plates (Costar #3506) in 4 ml Minimum Essential Medium (MEM) with 10% Fetal Calf Serum (FCS). Following an 18 hour incubation period (37° C.), Moloney murine leukemia virus (MoLV) was applied at a predetermined titer to give optimal (i.e. countable) numbers of virus plaques. Compounds were added 2 hours prior to addition of the virus. Three days later the culture medium was removed, the SC-1 cell monolayers were exposed to UV irradiation (1800 ergs), and rat XC cells […] were seeded into each well in 4 ml MEM. Following an additional 3 day incubation (37° C.), these cells were fixed with ethyl alcohol (95%) and stained with 0.3% crystal violet. Plaques were then counted under low magnification.

OC[C@H]1OC(O)[C@@H](F)[C@@H](O)[C@@H]1O (stereo partly drawn) [2-deoxy-2-fluoro-D-mannose]
inhibition of viral protein glycosylation [1]: preventing the glycosylation of viral membrane protein | antiviral activity against influenza infected cells (influenza infected cells): exhibit antiviral activity against influenza infected cells

OC[C@H]1OC(O)[C@H](F)[C@@H](O)[C@@H]1O (some centres unmarked) [2-deoxy-2-fluoroglucose]
inhibition of viral protein glycosylation [1]: inhibit viral protein glycosylation

O=CC[C@@H](O)[C@H](O)[C@H](O)CO [2-deoxy-D-glucose]
viral multiplication of HIV-infected cells (HIV-infected cells): stopped | inhibition of viral protein glycosylation ([1]; McDowell et al. 1985): inhibit viral protein glycosylation | block of formation of syncytia (HIV): block the formation of syncytia | inhibition of expression of HIV glycoproteins (HIV glycoproteins): inhibit expression of HIV glycoproteins

O=C(O[C@H]1CN2CC[C@H](O)[C@@H]2[C@@H](O)[C@@H]1O)c1ccco1 [R = 2-Furanoyl, R1 = H, R2 = H, 6-(2-Furancarboxylate)]
IC50 [2]: 1 µg/mL (≈ 3.53 µM)

CC(=O)O[C@H]1CN2CC[C@H](O)[C@@H]2[C@@H](O)[C@@H]1O [R = Ac, R1 = H, R2 = H, [1S-(1α,6β,7α,8β,8aβ)]-octahydro-1,6,7,8-indolizinetetrol 6-acetate]
IC50 [2]: 10 µg/mL (≈ 43.2 µM)

CCCC(=O)O[C@H]1[C@H](O)[C@@H](OC(=O)CCC)CN2CC[C@H](O)[C@H]12 [R = Butanoyl, R1 = H, R2 = Butanoyl, [1S-(1α,6β,7α,8β,8aβ)]-octahydro-1,6,7,8-indolizinetetrol 6,8-dibutanoate]
IC50 [2]: 0.5 µg/mL (≈ 1.52 µM)

CCCC(=O)O[C@H]1CN2CC[C@H](O)[C@@H]2[C@@H](O)[C@@H]1O [R = Butanoyl, R1 = H, R2 = H, [1S(1α,6β,7α,8β,8aβ)]-octahydro-1,6,7,8indolizinetrol 6-butanoate]
IC50 [2]: 0.1 µg/mL (≈ 0.386 µM)

O=C(O[C@H]1[C@H](O)[C@H]2[C@@H](O)CCN2C[C@@H]1OC(=O)c1ccccc1)c1ccccc1 [R = Bz, R1 = Bz, R2 = H, [1S-(1α,6β,7α,8β,8aβ)]-octahydro-1,6,7,8-indolizinetetrol 6,7-dibenzoate]
IC50 [2]: 10 µg/mL (≈ 25.2 µM)

O=C(O[C@H]1CN2CC[C@H](O)[C@@H]2[C@@H](O)[C@@H]1O)c1ccccc1 [R = Bz, R1 = H, R2 = H, [1S-(1α,6β,7α,8β,8aβ)]octahydro-1,6,7,8-indolizinetetrol 6-benzoate]
IC50 [2]: 0.1 µg/mL (≈ 0.341 µM)

O=C(O[C@H]1[C@H](O)[C@H]2[C@@H](O)CCN2C[C@@H]1O)c1ccc(Cl)cc1Cl [R = H, R1 = 2,4-Cl2 -Bz, R2 = H, [1S-(1α,6β,7α,8β,8aβ)]-octahydro-1,6,7,8-indolizinetetrol 7-(2,4-dichlorobenzoate)]
IC50 [2]: 1 µg/mL (≈ 2.76 µM)

O=C(O[C@H]1[C@H](O)[C@H]2[C@@H](O)CCN2C[C@@H]1O)c1ccccc1 [R = H, R1 = Bz, R2 = H, [1S-(1α,6β,7α,8β,8aβ)]-octahydro 1,6,7,8-indolizinetetrol 7-benzoate]
IC50 [2]: 1 µg/mL (≈ 3.41 µM)

Cc1ccc(C(=O)O[C@H]2[C@H](O)[C@H]3[C@@H](O)CCN3C[C@@H]2O)cc1 [R = H, R1 = p-CH3 Bz, R2 = H, [1S-(1α,6β,7α,8β,8aβ)]-octahydro-1,6,7,8-indolizinetetrol 7-(4-methylbenzoate)]
IC50 [2]: 1 µg/mL (≈ 3.25 µM)

Cc1ccc(C(=O)O[C@H]2CN3CC[C@H](O)[C@@H]3[C@@H](O)[C@@H]2O)cc1 [R = p-CH3 -Bz, R1 = H, R2 = H, [1S-(1α,6β,7α,8β,8aβ)]-octahydro-1,6,7,8-indolizinetetrol 6-(4-methylbenzoate)]
IC50 [2]: 1 µg/mL (≈ 3.25 µM)

COc1ccc(C(=O)O[C@H]2CN3CC[C@H](O)[C@@H]3[C@@H](O)[C@@H]2O)cc1 [R = p-CH3 O-Bz, R1 = H, R2 = H, [1S-(1α,6β,7α,8β,8aβ)]-octahydro-1,6,7,8-indolizinetetrol 6-(4-methoxybenzoate)]
IC50 [2]: 10 µg/mL (≈ 30.9 µM)

O=C(O[C@H]1CN2CC[C@H](O)[C@@H]2[C@@H](O)[C@@H]1O)c1ccc(F)cc1 [R = p-F-Bz, R1 = H, R2 = H, [1S-(1α,6β,7α,8β,8aβ)]-octahydro-1,6,7,8-indolizinetetrol 6-(4-fluorobenzoate)]
IC50 [2]: 10 µg/mL (≈ 32.1 µM)

O=C(O[C@H]1[C@H](O)[C@H]2[C@@H](O)CCN2C[C@@H]1OC(=O)c1ccc(F)cc1)c1ccc(F)cc1 [R = p-F-Bz, R1 = p-F-Bz, R2 = H, [1S-(1α,6β,7α,8β,8aβ)]-octahydro-1,6,7,8-indolizinetetrol 6,7-bis(4-fluorobenzoate)]
IC50 [2]: 10 µg/mL (≈ 23.1 µM)

CCC(O)[C@H](N)C(=O)O (stereo partly drawn) [β-hydroxy-norvaline]
viral multiplication of HIV-infected cells (HIV-infected cells): stopped | block of formation of syncytia (HIV): block the formation of syncytia | inhibition of expression of HIV glycoproteins (HIV glycoproteins): inhibit expression of HIV glycoproteins

— patent publication US5004746A, “Anti-retroviral castanospermine esters” (Merrell Dow Pharmaceuticals Inc., priority 1987, dated 1991)
